Values belong to the molecule of their own block, whether it stands above or below them.
System: 857933-349-R-J2-PDC complex spheroids, viability
Assay: Anticancer human tumor 857933-349-R-J2-PDC patient-derived colon adenocarcinoma cell line growth inhibition [GQUAD]
Settings: for IC50: curve of first compound; for viability, T/C: stronger effect = lower value
Method in brief: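 Viability of tumor cells grown as complex spheroids with endothelial and stromal cells, exposed to drug combinations. Top concentration at or near clinical Cmax (else 10 microM), diluted in half-log increments.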

[1] = second compound 0.0316 µM, first compound 0.0316 µM
[2] = second compound 0.0316 µM, first compound 0.316 µM
[3] = second compound 0.1 µM, first compound 0.0316 µM
[4] = second compound 0.1 µM, first compound 0.316 µM
[5] = second compound 0.316 µM, first compound 0.0316 µM
[6] = second compound 0.316 µM, first compound 0.316 µM
[7] = second compound 1 µM, first compound 0.0316 µM
[8] = second compound 1 µM, first compound 0.316 µM
[9] = second compound 3.16 µM, first compound 0.0316 µM
[10] = second compound 3.16 µM, first compound 0.316 µM
[11] = second compound 10 µM, first compound 0.0316 µM
[12] = second compound 10 µM, first compound 0.316 µM
[13] = second compound 0.0316 µM, first compound 0.000999 µM
[14] = second compound 0.0316 µM, first compound 0.00316 µM
[15] = second compound 0.0316 µM, first compound 0.00999 µM
[16] = second compound 0.0316 µM, first compound 0.0999 µM
[17] = second compound 0.1 µM, first compound 0.000999 µM
[18] = second compound 0.1 µM, first compound 0.00316 µM
[19] = second compound 0.1 µM, first compound 0.00999 µM
[20] = second compound 0.1 µM, first compound 0.0999 µM
[21] = second compound 0.316 µM, first compound 0.000999 µM
[22] = second compound 0.316 µM, first compound 0.00316 µM
[23] = second compound 0.316 µM, first compound 0.00999 µM
[24] = second compound 0.316 µM, first compound 0.0999 µM
[25] = second compound 1 µM, first compound 0.000999 µM
[26] = second compound 1 µM, first compound 0.00316 µM
[27] = second compound 1 µM, first compound 0.00999 µM
[28] = second compound 1 µM, first compound 0.0999 µM
[29] = second compound 3.16 µM, first compound 0.000999 µM
[30] = second compound 3.16 µM, first compound 0.00316 µM
[31] = second compound 3.16 µM, first compound 0.00999 µM
[32] = second compound 3.16 µM, first compound 0.0999 µM
[33] = second compound 10 µM, first compound 0.000999 µM
[34] = second compound 10 µM, first compound 0.00316 µM
[35] = second compound 10 µM, first compound 0.00999 µM
[36] = second compound 10 µM, first compound 0.0999 µM
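Note: spheroids exposed to compounds for one week before readout.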
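Throughout, for viability, T/C: percent viability relative to vehicle DMSO wells taken as 100%.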

- IC50 (second compound 0.0316 µM): < 31.6 nM
- IC50 (second compound 0.1 µM): < 31.6 nM
- IC50 (second compound 0.316 µM): < 31.6 nM
- IC50 (second compound 1 µM): < 31.6 nM
- IC50 (second compound 3.16 µM): < 31.6 nM
- IC50 (second compound 10 µM): < 31.6 nM
SMILES: CC(=O)O[C@H]1C(=O)[C@@]2(C)[C@H]([C@H](OC(=O)c3ccccc3)[C@]3(O)C[C@H](OC(=O)[C@H](O)[C@@H](NC(=O)c4ccccc4)c4ccccc4)C(C)=C1C3(C)C)[C@]1(OC(C)=O)CO[C@@H]1C[C@@H]2O + Cc1cnc(CNC(=O)c2c(=O)c3ccc(N4CCCN(C)CC4)nc3n3c2sc2ccccc23)cn1
- viability, T/C [1]: 40.6%
- viability, T/C (second compound 0.0316 µM, first compound 0.1 µM): 13.7%
- viability, T/C [2]: 8.87%
- viability, T/C (second compound 0.0316 µM, first compound 1 µM): 6.32%
- viability, T/C (second compound 0.0316 µM, first compound 3.16 µM): 6.9%
- viability, T/C (second compound 0.0316 µM, first compound 10 µM): 11.3%
- viability, T/C [3]: 31.5%
- viability, T/C (second compound 0.1 µM, first compound 0.1 µM): 14%
- viability, T/C [4]: 6.78%
- viability, T/C (second compound 0.1 µM, first compound 1 µM): 6.48%
- viability, T/C (second compound 0.1 µM, first compound 3.16 µM): 6.61%
- viability, T/C (second compound 0.1 µM, first compound 10 µM): 7.71%
- viability, T/C [5]: 14.6%
- viability, T/C (second compound 0.316 µM, first compound 0.1 µM): 9.67%
- viability, T/C [6]: 5.73%
- viability, T/C (second compound 0.316 µM, first compound 1 µM): 5.21%
- viability, T/C (second compound 0.316 µM, first compound 3.16 µM): 4.57%
- viability, T/C (second compound 0.316 µM, first compound 10 µM): 6.73%
- viability, T/C [7]: 3.73%
- viability, T/C (second compound 1 µM, first compound 0.1 µM): 3.78%
- viability, T/C [8]: 3.68%
- viability, T/C (second compound 1 µM, first compound 1 µM): 2.27%
- viability, T/C (second compound 1 µM, first compound 3.16 µM): 2.21%
- viability, T/C (second compound 1 µM, first compound 10 µM): 3.57%
- viability, T/C [9]: 2.95%
- viability, T/C (second compound 3.16 µM, first compound 0.1 µM): 2.49%
- viability, T/C [10]: 1.98%
- viability, T/C (second compound 3.16 µM, first compound 1 µM): 1.77%
- viability, T/C (second compound 3.16 µM, first compound 3.16 µM): 1.78%
- viability, T/C (second compound 3.16 µM, first compound 10 µM): 2.45%
- viability, T/C [11]: 0.16%
- viability, T/C (second compound 10 µM, first compound 0.1 µM): 0.18%
- viability, T/C [12]: 0.19%
- viability, T/C (second compound 10 µM, first compound 1 µM): 0.14%
- viability, T/C (second compound 10 µM, first compound 3.16 µM): 0.17%
- viability, T/C (second compound 10 µM, first compound 10 µM): 0.19%

- IC50 (second compound 0.0316 µM): 87.2 nM
- IC50 (second compound 0.1 µM): 68 nM
- IC50 (second compound 0.316 µM): < 0.999 nM
- IC50 (second compound 1 µM): < 0.999 nM
- IC50 (second compound 3.16 µM): < 0.999 nM
- IC50 (second compound 10 µM): < 0.999 nM
SMILES: CC[C@@]1(O)C(=O)OCc2c1cc1n(c2=O)Cc2cc3c(CN(C)C)c(O)ccc3nc2-1 + Cc1cnc(CNC(=O)c2c(=O)c3ccc(N4CCCN(C)CC4)nc3n3c2sc2ccccc23)cn1
- viability, T/C [13]: 95.9%
- viability, T/C [14]: 96%
- viability, T/C [15]: 81.6%
- viability, T/C [1]: 59.7%
- viability, T/C [16]: 53.1%
- viability, T/C [2]: 32.2%
- viability, T/C [17]: 58.2%
- viability, T/C [18]: 65.6%
- viability, T/C [19]: 61.4%
- viability, T/C [3]: 60.3%
- viability, T/C [20]: 44.8%
- viability, T/C [4]: 19.6%
- viability, T/C [21]: 23.6%
- viability, T/C [22]: 20.7%
- viability, T/C [23]: 18.6%
- viability, T/C [5]: 22%
- viability, T/C [24]: 14%
- viability, T/C [6]: 5.04%
- viability, T/C [25]: 4.85%
- viability, T/C [26]: 5.23%
- viability, T/C [27]: 4.03%
- viability, T/C [7]: 3.48%
- viability, T/C [28]: 2.83%
- viability, T/C [8]: 2.11%
- viability, T/C [29]: 2.58%
- viability, T/C [30]: 2.92%
- viability, T/C [31]: 2.38%
- viability, T/C [9]: 2.13%
- viability, T/C [32]: 1.91%
- viability, T/C [10]: 1.66%
- viability, T/C [33]: 1.38%
- viability, T/C [34]: 1.91%
- viability, T/C [35]: 1.93%
- viability, T/C [11]: 2.78%
- viability, T/C [36]: 0.44%
- viability, T/C [12]: 0.24%

- IC50 (second compound 0.0316 µM): 3.53 nM
- IC50 (second compound 0.1 µM): 3.89 nM
- IC50 (second compound 0.316 µM): < 0.999 nM
- IC50 (second compound 1 µM): < 0.999 nM
- IC50 (second compound 3.16 µM): < 0.999 nM
- IC50 (second compound 10 µM): < 0.999 nM
SMILES: CCc1c2c(nc3ccc(O)cc13)-c1cc3c(c(=O)n1C2)COC(=O)[C@]3(O)CC + Cc1cnc(CNC(=O)c2c(=O)c3ccc(N4CCCN(C)CC4)nc3n3c2sc2ccccc23)cn1
- viability, T/C [13]: 89%
- viability, T/C [14]: 43.6%
- viability, T/C [15]: 41.9%
- viability, T/C [1]: 16.5%
- viability, T/C [16]: 10.4%
- viability, T/C [2]: 8.23%
- viability, T/C [17]: 55.4%
- viability, T/C [18]: 55.9%
- viability, T/C [19]: 31.9%
- viability, T/C [3]: 11%
- viability, T/C [20]: 6.26%
- viability, T/C [4]: 3.59%
- viability, T/C [21]: 25.9%
- viability, T/C [22]: 17.3%
- viability, T/C [23]: 5.28%
- viability, T/C [5]: 2.97%
- viability, T/C [24]: 2.84%
- viability, T/C [6]: 0.55%
- viability, T/C [25]: 3.82%
- viability, T/C [26]: 3.55%
- viability, T/C [27]: 2.71%
- viability, T/C [7]: 1.95%
- viability, T/C [28]: 1.2%
- viability, T/C [8]: 0.14%
- viability, T/C [29]: 2.34%
- viability, T/C [30]: 1.9%
- viability, T/C [31]: 1.86%
- viability, T/C [9]: 0.77%
- viability, T/C [32]: 0.1%
- viability, T/C [10]: 0.13%
- viability, T/C [33]: 1.54%
- viability, T/C [34]: 0.97%
- viability, T/C [35]: 0.21%
- viability, T/C [11]: 0.17%
- viability, T/C [36]: 0.16%
- viability, T/C [12]: 0.19%

Reference: PubChem BioAssay AID2060491 (Molecular Pharmacology Branch, DTP, NCI, 2025)
